Results taken from PubChem BioAssay (NCI).
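Interpolation was linear, between the two tested concentrations surrounding the appropriate level; five concentrations were tested over 48 hours in 96-well plates. GI50 marks 50% less growth. TGI denotes the concentration required for complete inhibition of growth.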

Assays:
Assay in all cases: DTP human tumour cell line panel, 48 h
EKVX NSCLC = system: EKVX NSCLC
HOP-92 NSCLC = system: HOP-92 NSCLC
K-562 leukemia = system: K-562 leukemia
MOLT-4 leukemia = system: MOLT-4 leukemia
NCI-H522 lung = system: NCI-H522 lung
OVCAR-4 ovarian = system: OVCAR-4 ovarian
RPMI-8226 leukemia = system: RPMI-8226 leukemia
SK-MEL-5 melanoma = system: SK-MEL-5 melanoma
U251 CNS = system: U251 CNS
LOX IMVI melanoma = system: LOX IMVI melanoma

Structure (SMILES) | TGI (EKVX NSCLC) [µM] | TGI (HOP-92 NSCLC) [µM] | TGI (K-562 leukemia) [µM] | TGI (MOLT-4 leukemia) [µM] | TGI (NCI-H522 lung) [µM] | TGI (OVCAR-4 ovarian) [µM] | TGI (RPMI-8226 leukemia) [µM] | TGI (SK-MEL-5 melanoma) [µM] | TGI (U251 CNS) [µM] | TGI (LOX IMVI melanoma) [µM] | GI50 (HOP-92 NSCLC) [µM] | GI50 (NCI-H522 lung) [µM] | GI50 (OVCAR-4 ovarian) [µM] | GI50 (RPMI-8226 leukemia) [µM] | GI50 (SK-MEL-5 melanoma) [µM] | GI50 (U251 CNS) [µM] | GI50 (EKVX NSCLC) [µM] | GI50 (K-562 leukemia) [µM] | GI50 (LOX IMVI melanoma) [µM] | GI50 (MOLT-4 leukemia) [µM]
O=C(O)C(Br)Cc1ccc2c(c1)OCO2 (stereo unspecified) | > 100 | > 100 | > 100 | > 100 | > 100 | > 100 | > 100 | > 100 | > 100 |  |  |  |  |  |  |  |  |  |  | 
COc1cc2c3c(c4cc(OC)c(OC)cc4c2cc1OC)[C@H](O)[C@@H]1CCCN1C3 | 0.938 | 2.32 | > 100 | > 100 | 1.55 | 0.702 | 0.44 | 1.11 | 2.5 | 2.75 |  |  |  |  |  |  |  |  |  | 
CSc1sc(=S)sc1SC | > 100 | > 100 | > 100 | > 100 | > 100 | > 100 | > 100 | > 100 | > 100 | > 100 |  |  |  |  |  |  |  |  |  | 
COc1cc2c3c(n(C4CCNCC4)c(=O)c2cc1OC)-c1cc2c(cc1C3=O)OCO2 |  | 28.3 |  |  | 2.99 | 2.95 | 3.68 | 1.46 | 2.01 |  | 2.45 | 0.296 | 1.42 | 0.773 | 0.322 | 0.279 |  |  |  | 
S=C1NN=C2C(=C3CCCC4C5CCCCC5N2C34)N1 (stereo unspecified) |  | > 100 | > 100 | > 100 | > 100 | > 100 | > 100 | > 100 |  | > 100 |  |  |  |  |  |  |  |  |  | 
C#C[C@@]1(O)[C@@H](CO)O[C@@H](n2cc(F)c3c(N)ncnc32)[C@@H]1O | 11.3 |  | > 100 | > 100 | 0.929 | 8.67 | 1.98 | 1.33 | 11.6 | 1.11 |  | 0.18 | 1.01 | 0.221 | 0.267 | 0.631 | 0.675 | 0.285 | 0.279 | 0.304
C[C@H](CCC1=NCCN1)[C@H]1CC[C@H]2[C@@H]3CC[C@@H]4C[C@H](O)CC[C@]4(C)[C@H]3CC[C@]12C | 30.1 | 19.5 | > 21.8 | 8.79 | 14.3 | 29.6 | 13.4 | 3.45 | > 45.2 | 4.76 |  |  |  |  |  |  |  |  |  | 
CCCCCCCCCCCCCCCCOCCCOP(=O)(O)C1CCCN(O)C1=O (stereo unspecified) | 16.3 | 40 | 42.3 | 19.7 | 14.8 | 19.2 | 29.4 | 14.7 | 15.3 | 11.4 | 6.08 | 2.76 | 2.43 | 0.936 | 3.74 | 0.489 | 3.6 | 4.25 | 2.86 | 1.6
COc1ccc(/C(Cl)=C(\C=O)c2ccc(Cl)c(Cl)c2)cc1OC | 30.6 | 13.8 | > 100 | 5.76 | 6.53 |  | 5.5 | 26.6 | 15 | 13.6 |  |  |  |  |  |  |  |  |  | 
